The text below walks through data of ChEMBL document CHEMBL1132420, “Vasopeptidase inhibitors: incorporation of geminal and spirocyclic substituted azepinones in mercaptoacyl dipeptides” (J Med Chem, 1999).

The target in one test is T1, Neprilysin (Rattus norvegicus, UniProt P07861).
T1 sequence (P07861 whole entry): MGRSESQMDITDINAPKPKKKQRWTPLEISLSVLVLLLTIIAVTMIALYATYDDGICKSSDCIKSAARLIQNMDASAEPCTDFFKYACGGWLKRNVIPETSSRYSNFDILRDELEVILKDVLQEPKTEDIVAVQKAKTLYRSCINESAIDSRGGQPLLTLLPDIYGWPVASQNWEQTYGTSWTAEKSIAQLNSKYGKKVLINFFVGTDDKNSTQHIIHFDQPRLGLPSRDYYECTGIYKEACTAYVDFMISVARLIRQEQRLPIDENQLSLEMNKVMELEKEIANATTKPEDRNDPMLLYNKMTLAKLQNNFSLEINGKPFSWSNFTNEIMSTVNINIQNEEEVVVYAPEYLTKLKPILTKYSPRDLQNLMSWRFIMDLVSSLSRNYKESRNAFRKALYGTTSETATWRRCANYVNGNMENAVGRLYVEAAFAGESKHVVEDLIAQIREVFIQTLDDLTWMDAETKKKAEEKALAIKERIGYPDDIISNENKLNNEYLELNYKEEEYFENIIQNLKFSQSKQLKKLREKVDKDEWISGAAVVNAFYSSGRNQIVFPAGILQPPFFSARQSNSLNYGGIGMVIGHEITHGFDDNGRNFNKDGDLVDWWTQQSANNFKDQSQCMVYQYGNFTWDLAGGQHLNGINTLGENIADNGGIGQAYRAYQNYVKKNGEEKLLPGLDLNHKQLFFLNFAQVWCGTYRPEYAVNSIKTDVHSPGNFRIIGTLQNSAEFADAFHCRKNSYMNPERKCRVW
Briefly: In vitro inhibitory activity against purified rat kidney neutral endopeptidase (NEP) using a fluorometric assay with dansyl-Gly-Phe-Arg as the substrate.

Test [1] concerns the target T2, Angiotensin-converting enzyme (Oryctolagus cuniculus, UniProt P12822).
T2 sequence (P12822 whole entry): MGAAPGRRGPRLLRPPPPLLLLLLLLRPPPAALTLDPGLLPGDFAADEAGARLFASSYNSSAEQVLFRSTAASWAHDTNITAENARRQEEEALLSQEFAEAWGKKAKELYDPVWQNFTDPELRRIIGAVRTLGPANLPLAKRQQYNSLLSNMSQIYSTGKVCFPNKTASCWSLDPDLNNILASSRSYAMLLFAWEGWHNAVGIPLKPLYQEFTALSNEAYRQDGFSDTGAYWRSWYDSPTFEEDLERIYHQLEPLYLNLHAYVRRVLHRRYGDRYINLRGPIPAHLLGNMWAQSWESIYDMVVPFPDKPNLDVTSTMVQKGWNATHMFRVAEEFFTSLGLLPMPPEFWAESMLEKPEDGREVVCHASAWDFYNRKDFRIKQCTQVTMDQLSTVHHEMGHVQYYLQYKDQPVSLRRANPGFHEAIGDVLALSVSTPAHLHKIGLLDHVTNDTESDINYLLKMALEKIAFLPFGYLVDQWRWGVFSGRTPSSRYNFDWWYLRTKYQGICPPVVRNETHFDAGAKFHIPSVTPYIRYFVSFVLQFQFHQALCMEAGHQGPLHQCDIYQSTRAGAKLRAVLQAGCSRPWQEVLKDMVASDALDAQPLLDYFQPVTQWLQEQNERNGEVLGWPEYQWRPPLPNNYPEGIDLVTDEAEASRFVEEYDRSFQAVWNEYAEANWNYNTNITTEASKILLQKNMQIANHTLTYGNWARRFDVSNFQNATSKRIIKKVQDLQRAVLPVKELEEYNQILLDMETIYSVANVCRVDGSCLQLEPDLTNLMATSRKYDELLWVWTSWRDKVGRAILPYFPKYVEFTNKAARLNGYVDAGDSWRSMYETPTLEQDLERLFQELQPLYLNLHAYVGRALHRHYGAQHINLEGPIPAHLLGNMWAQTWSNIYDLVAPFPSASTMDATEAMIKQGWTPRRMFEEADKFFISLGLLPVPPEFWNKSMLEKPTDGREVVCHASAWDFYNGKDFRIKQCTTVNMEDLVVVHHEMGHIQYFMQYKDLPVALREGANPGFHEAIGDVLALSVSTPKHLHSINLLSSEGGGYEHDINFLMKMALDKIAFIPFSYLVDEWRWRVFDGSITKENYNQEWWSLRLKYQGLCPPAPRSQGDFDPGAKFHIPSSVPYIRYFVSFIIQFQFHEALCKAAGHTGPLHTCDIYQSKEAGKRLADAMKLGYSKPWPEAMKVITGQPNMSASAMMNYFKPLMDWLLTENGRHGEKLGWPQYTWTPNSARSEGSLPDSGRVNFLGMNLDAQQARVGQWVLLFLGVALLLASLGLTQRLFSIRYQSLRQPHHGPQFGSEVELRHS
Briefly: In vitro inhibitory activity against Angiotensin I converting enzyme (ACE) isolated from rabbit lung extract using hippuryl-L-histidyl-L-leucine (HHL) as the substrate.

The species named for the next test is Rattus norvegicus. The test is described as follows: Compound is evaluated for the dose required for 50% inhibition of AI pressor response in normotensive rats. It counts as functional.

Regarding `O=C(O)CN1C(=O)[C@@H](NC(=O)[C@@H](S)Cc2ccccc2)CCCC12CCC2`, the IC50 at Neprilysin came to 641 nM; in test [1], 29 nM.

For `O=C(O)CN1C(=O)[C@@H](NC(=O)[C@@H](S)Cc2ccccc2)CCCC12CC2`, the figures for the IC50 (against Neprilysin; in test [1]) were 377 nM and 9.6 nM, respectively.

On to `CC1(C)CCC[C@H](NC(=O)[C@@H](S)Cc2ccccc2)C(=O)N1CC(=O)O` [GEMOPATRILAT], for which the values for the IC50 (against Neprilysin; in test [1]) were 63 nM and 12 nM, respectively. Also, in the test filed under Rattus norvegicus, the ED50 came out at 0.1 µmol/kg.

Turning to `O=C(O)CN1C(=O)[C@@H](NC(=O)[C@@H](S)Cc2ccccc2)CCCC12CCCC2`, the IC50 against Neprilysin was found to be 426 nM; in test [1] it was 6 nM.

The compound `C[C@H]1CCC[C@H](NC(=O)[C@@H](S)Cc2ccccc2)C(=O)N1CC(=O)O` had an IC50 in test [1] of 8.2 nM.
